From PubChem BioAssay (NCI)
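Each compound was tested at five concentrations against cells in 96-well plates for 48 hours. GI50 is the concentration that inhibits growth by half. TGI denotes the concentration required for complete inhibition of growth.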

Key:
Experiment in all cases: NCI tumour cell line growth inhibition, 48 h
[1] = system: M14 melanoma
[2] = system: EKVX NSCLC
[3] = system: TK-10 renal
[4] = system: SK-MEL-28 melanoma
[5] = system: SF-268 CNS
[6] = system: UO-31 renal
[7] = system: SF-295 CNS
[8] = system: ACHN renal
[9] = system: HS 578T breast
[10] = system: U251 CNS

SMILES | TGI [1] | TGI [2] | TGI [3] | TGI [4] | TGI [5] | TGI [6] | TGI [7] | TGI [8] | GI50 [1] | GI50 [9] | TGI [9] | GI50 [3] | GI50 [4] | GI50 [10] | TGI [10] | GI50 [5] | GI50 [6] | GI50 [7] | GI50 [8] | GI50 [2]
CC(=O)Oc1cc2c(cc1OC(C)=O)C1(C)CCC2(C)c2cc(OC(C)=O)c(OC(C)=O)cc21 | 90.5 µM | > 100 µM | 76.6 µM | > 100 µM | > 100 µM | 89.1 µM | 58.8 µM | > 100 µM |  |  |  |  |  |  |  |  |  |  |  | 
Cn1c(Cl)c(/C=C2/C(=O)Nc3ccccc32)c2ccccc21 | 5.46 µM | 7.52 µM | 20.4 µM | 19.7 µM | > 35.7 µM | 44.7 µM | 2.21 µM | 18.8 µM | 0.248 µM | 0.248 µM | 2.03 µM | 1.5 µM | 1.08 µM | 0.758 µM | 14.9 µM | 4.08 µM | 3.39 µM | 0.223 µM | 1.15 µM | 
CC(C)CNc1nc(-c2ccccc2Cl)nc2ccccc12 | 35.1 µM |  | 29.6 µM | 40.7 µM | 40.4 µM | 49.2 µM | 28.4 µM | 33.8 µM | 19.5 µM | 18 µM | 37.3 µM | 15.8 µM | 20.8 µM | 16.9 µM | 30.5 µM | 22.1 µM | 17.1 µM | 14.9 µM | 15.1 µM | 
CCCCCCCCCCCCCP(=O)(O)O | > 100 µM | > 100 µM | > 100 µM | > 100 µM | > 100 µM | > 100 µM | > 100 µM | > 100 µM |  |  |  |  |  |  | > 100 µM |  |  |  |  | 
COc1ccc2c(c1)C(=O)CCc1cc(OC)c(OC)c(OC)c1-2 | > 100 µM |  | > 100 µM | > 100 µM | > 100 µM | > 100 µM | > 100 µM | > 100 µM | < 0.01 µM |  | 0.0576 µM |  | 24.8 µM | < 0.01 µM | 0.18 µM | 0.0652 µM | < 0.01 µM | < 0.01 µM | 0.0505 µM | 
CC(=O)Oc1c(C)c(-c2ccccc2)c(C)c(-c2ccccc2)c1C(=S)c1ccccc1 | > 100 µM | > 100 µM | > 100 µM | > 100 µM | > 100 µM | > 100 µM | > 100 µM | > 100 µM |  |  |  |  |  |  | > 100 µM |  |  |  |  | 
CCOC(=O)[CH-]C(=O)C12CC3CC(CC(C3)C1)C2.CCOC(=O)[CH-]C(=O)C12CC3CC(CC(C3)C1)C2.CC[O-].CC[O-].[Ti+4] | > 100 µM |  | > 100 µM | > 100 µM | > 100 µM | > 100 µM | > 100 µM | > 100 µM | > 100 µM |  |  | > 100 µM | > 100 µM | > 100 µM | > 100 µM | > 100 µM | > 100 µM | > 100 µM | > 100 µM | 
CN(C)C/C=C/C(=O)Nc1ccc(C(=O)N[C@@]2(C)CCC[C@@H](Nc3ncc(Cl)c(-c4c[nH]c5ccccc45)n3)C2)nc1 | 0.0282 µM | 0.564 µM | 1.11 µM | 0.118 µM |  | 0.718 µM | 1.1 µM | 0.741 µM | < 0.01 µM | 0.022 µM | 0.0877 µM | 0.0153 µM | < 0.01 µM |  |  |  | 0.0557 µM | 0.0126 µM | < 0.0108 µM | < 0.01 µM
O=C1C=C(Nc2ccccc2C(=O)CC(=O)C(=O)Nc2cccc([N+](=O)[O-])c2)c2ccccc2C1=O | > 100 µM | > 100 µM | > 100 µM | > 100 µM | 88.6 µM | > 100 µM |  | > 100 µM |  |  |  |  |  |  | > 100 µM |  |  |  |  | 
Nc1ncc(-c2cnn(C3CCNCC3)c2)cc1-c1nc2cc(Cl)ccc2o1 | 3.25 µM |  | 3.58 µM | 2.68 µM | 2.8 µM | 1.02 µM | 3.68 µM | 3.08 µM | 1.79 µM | 0.385 µM | 1.77 µM | 1.94 µM | 1.3 µM | 1.38 µM | 2.73 µM | 1.38 µM | 0.484 µM | 1.96 µM | 1.65 µM | 
O=C(Nc1ccc(Cl)cc1)C1C(=O)C(=O)N(c2ccc(Cl)cc2)C1=O (stereo unspecified) | > 100 µM | > 100 µM | > 100 µM | > 100 µM | > 100 µM | > 100 µM | > 100 µM | > 100 µM |  |  |  |  |  |  | > 100 µM |  |  |  |  | 
C[C@]12CC=CC(=O)[C@@]1(C)CCC(=O)C2 | > 100 µM | > 100 µM | > 100 µM | > 100 µM | > 100 µM | > 100 µM | > 100 µM | > 100 µM |  |  |  |  |  |  | > 100 µM |  |  |  |  | 
Cc1ccc(S(=O)(=O)OC2CC=CC2)cc1 | > 100 µM | > 100 µM | > 100 µM | > 100 µM |  | > 100 µM | > 100 µM | > 100 µM |  |  |  |  |  |  | > 100 µM |  |  |  |  | 
CCN1CCCc2cc3c(C(F)(F)F)cc(=O)oc3cc21 | > 100 µM | > 100 µM | > 100 µM | > 100 µM | > 100 µM | > 100 µM | > 100 µM | > 100 µM |  |  |  |  |  |  | > 100 µM |  |  |  |  | 
NC1=NN(c2ccccc2)C(=O)C1C(=O)CCC(=O)Nc1cccc(Cl)c1 (stereo unspecified) | > 100 µM | > 100 µM | > 100 µM | > 100 µM | > 100 µM | > 100 µM | > 100 µM | > 100 µM |  |  |  |  |  |  | > 100 µM |  |  |  |  | 
COc1ccc(NC(=O)CC/C(CC(=O)c2ccco2)=N/NC(=O)C(N)=O)cc1 | > 100 µM | > 100 µM | > 100 µM | > 100 µM | > 100 µM | > 100 µM | > 100 µM | > 100 µM |  |  |  |  |  |  |  |  |  |  |  | 
COc1cc(NCC(C#N)C#N)ccc1N=Nc1ccc(Cl)cc1 | 33.5 µM | 68.5 µM | 73 µM | 80.1 µM | > 100 µM | 52.5 µM | 51.3 µM | > 100 µM |  |  |  |  |  |  | 37 µM |  |  |  |  | 
COc1ccc([C@@]2(O)c3c(ccc(O)c3OC)[C@H]2OC)c(OC)c1 | > 100 µM | > 100 µM | > 100 µM | > 100 µM | > 100 µM | > 100 µM | > 100 µM | > 100 µM |  |  |  |  |  |  | > 100 µM |  |  |  |  | 
O=S(=O)(C1=CC(S(=O)(=O)c2ccccc2)CN(Cc2ccccc2)C1c1cccc2ccccc12)c1ccccc1 (stereo unspecified) | > 69 µM | > 69 µM | > 69 µM | > 69 µM | > 69 µM | > 69 µM | > 69 µM | > 69 µM |  |  |  |  |  |  | > 69 µM |  |  |  |  | 
